Results: ChEMBL document CHEMBL1671630, “Phenotypic characterization of two Ancylostoma caninum isolates with different susceptibilities to the anthelmintic pyrantel” (Antimicrob Agents Chemother, 2008)

Key:
Type in all cases: functional
Ancylostoma caninum [1] = assay: Antiparasitic activity against Ancylostoma caninum isolate PR assessed as compound concentration required to inhibit parasitic contraction by larval arrested morphology assay
Ancylostoma caninum [2] = assay: Antiparasitic activity against Ancylostoma caninum isolate NT assessed as compound concentration required to inhibit parasitic contraction by larval arrested morphology assay
Ancylostoma caninum [3] = assay: Ratio of IC50 for Ancylostoma caninum isolate NT to IC50 for Ancylostoma caninum isolate PR by larval motility assay
Ancylostoma caninum [4] = assay: Antiparasitic activity against Ancylostoma caninum isolate PR assessed as compound concentration required to inhibit parasitic contraction by larval motility assay
Ancylostoma caninum [5] = assay: Ratio of EC50 for Ancylostoma caninum isolate PR to […] by force transduction assay
Ancylostoma caninum [6] = assay: Antiparasitic activity against Ancylostoma caninum isolate PR assessed as concentration of drug required to cause a force of contraction half that of the KCl-induced maximal contraction by force transduction assay
Ancylostoma caninum [7] = assay: Antiparasitic activity against Ancylostoma caninum isolate NT assessed as compound concentration required to inhibit parasitic contraction by larval motility assay
Ancylostoma caninum [8] = assay: Ratio of IC50 for Ancylostoma caninum isolate NT to IC50 for Ancylostoma caninum isolate PR by larval arrested morphology assay
Ancylostoma caninum [9] = assay: Antiparasitic activity against Ancylostoma caninum isolate NT assessed as concentration of drug required to cause a force of contraction half that of the KCl-induced maximal contraction by force transduction assay

| Structure (SMILES) | EC50 (Ancylostoma caninum [6]) [µM] | EC50 (Ancylostoma caninum [9]) [µM] | IC50 (Ancylostoma caninum [1]) [µM] | IC50 (Ancylostoma caninum [2]) [µM] | Ratio IC50 (Ancylostoma caninum [3]) | IC50 (Ancylostoma caninum [4]) [µM] | Ratio EC50 (Ancylostoma caninum [5]) | IC50 (Ancylostoma caninum [7]) [µM] | Ratio IC50 (Ancylostoma caninum [8]) |
| --- | --- | --- | --- | --- | --- | --- | --- | --- | --- |
| C[N+](C)(CCOc1ccccc1)Cc1ccccc1.O=C([O-])c1cc2ccccc2cc1O [BEPHENIUM HYDROXYNAPHTHOATE] | 2790 | 2880 | 17 | 45 | 0.45 | 8.6 | 0.97 | 19 | 0.46 |
| CN1CCC[C@H]1c1cccnc1 [NICOTINE] | 1960 | 942 | 6.2 | 5.8 | 0.95 | 3.6 | 2.1 | 3.7 | 1.07 |
| CN1CCCN=C1/C=C/c1cccs1.O=C(O)c1cc2ccccc2c(Cc2c(O)c(C(=O)O)cc3ccccc23)c1O [PYRANTEL PAMOATE] | – | – | – | – | – | – | 3.1 | – | 18.3 |

The next lines start with results.

| EC50 (Ancylostoma caninum [6]) [µM] | EC50 (Ancylostoma caninum [9]) [µM] | Structure (SMILES) | IC50 (Ancylostoma caninum [1]) [µM] | IC50 (Ancylostoma caninum [2]) [µM] | Ratio IC50 (Ancylostoma caninum [3]) | IC50 (Ancylostoma caninum [4]) [µM] | Ratio EC50 (Ancylostoma caninum [5]) | IC50 (Ancylostoma caninum [7]) [µM] | Ratio IC50 (Ancylostoma caninum [8]) |
| --- | --- | --- | --- | --- | --- | --- | --- | --- | --- |
| 681 | 217 | CN1CCCN=C1/C=C/c1cccs1 [PYRANTEL PAMOATE] | 0.066 | 0.0037 | – | – | – | – | – |
| 244 | 120 | Cl.c1ccc([C@H]2CN3CCSC3=N2)cc1 [LEVAMISOLE HYDROCHLORIDE] | 0.017 | 0.0022 | 2.7 | 0.004 | 2 | 0.0015 | 7.2 |
